Assays:
Assay in all cases: relative viability (nuclei count vs DMSO), 5 days (fraction); higher = more cells survive
[1] = system: RERF-LC-KJ
Procedure, shortened: (§1)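 Values are medians from duplicate plates. Each reflects relative viability, defined as the nuclei count of treated wells over that of vehicle wells. Lung cancer cell lines in 1536-well plates were pin-tool dosed one day after seeding with one drug alone or with a fixed anchor-drug dose plus five library-drug doses (not always all listed) in √10 steps, then fixed, stained and imaged at 4× after 5 days.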

[2] = system: CAL-12T
Procedure, shortened: as §1

[3] = system: NCI-H1650
Procedure, shortened: as §1

[4] = system: ABC-1
Procedure, shortened: as §1

[5] = system: PC-3 [JPC-3]
Procedure, shortened: as §1

[6] = system: NCI-H1563
Procedure, shortened: as §1

[7] = system: NCI-H520
Procedure, shortened: as §1

[8] = system: NCI-H2405
Procedure, shortened: as §1

[9] = system: NCI-H2228
Procedure, shortened: as §1

[10] = system: NCI-H322M
Procedure, shortened: as §1

[11] = system: HCC-15
Procedure, shortened: as §1

[12] = system: NCI-H661
Procedure, shortened: as §1

[13] = system: SW 1573
Procedure, shortened: as §1

[14] = system: EKVX
Procedure, shortened: as §1

[15] = system: COR-L23
Procedure, shortened: as §1

[16] = system: NCI-H1734
Procedure, shortened: as §1

[17] = system: HCC-827
Procedure, shortened: as §1

[18] = system: PC-14
Procedure, shortened: as §1

[19] = system: NCI-H1437
Procedure, shortened: as §1

[20] = system: H3255
Procedure, shortened: as §1

[21] = system: NCI-H2342
Procedure, shortened: as §1

[22] = system: LK-2
Procedure, shortened: as §1

[23] = system: NCI-H1355
Procedure, shortened: as §1

In the case of `CC1(C)CCC(c2ccc(Cl)cc2)=C(CN2CCN(c3ccc(C(=O)NS(=O)(=O)c4ccc(N[C@H](CCN5CCOCC5)CSc5ccccc5)c(S(=O)(=O)C(F)(F)F)c4)cc3)CC2)C1` [Navitoclax] + Cc1nc(Nc2ncc(C(=O)Nc3c(C)cccc3Cl)s2)cc(N2CCN(CCO)CC2)n1 [Dasatinib] (partner 0.075 µM), the relative viability ([1]; first compound 0.005 µM) is reported as 0.787, the relative viability ([1]; first compound 0.01581 µM) is reported as 0.757 and the relative viability ([1]; first compound 0.05 µM) is reported as 0.817. It also gave a relative viability ([1]; first compound 0.1581 µM) of 0.823, a relative viability ([1]; first compound 0.5 µM) of 0.918 and a relative viability ([2]; first compound 0.005 µM) of 0.433. It also gave a relative viability ([2]; first compound 0.01581 µM) of 0.6, a relative viability ([2]; first compound 0.05 µM) of 0.325 and a relative viability ([2]; first compound 0.1581 µM) of 0.492. For the same compound, the relative viability ([2]; first compound 0.5 µM) was 0.506, the relative viability ([3]; first compound 0.005 µM) was 0.28 and the relative viability ([3]; first compound 0.01581 µM) was 0.38. For the same compound, the relative viability ([3]; first compound 0.05 µM) was 0.314, the relative viability ([3]; first compound 0.1581 µM) was 0.277 and the relative viability ([3]; first compound 0.5 µM) was 0.219. The relative viability ([4]; first compound 0.005 µM) was 0.588, the relative viability ([4]; first compound 0.01581 µM) was 0.644 and the relative viability ([4]; first compound 0.05 µM) was 0.49. It also gave a relative viability ([4]; first compound 0.1581 µM) of 0.555, a relative viability ([4]; first compound 0.5 µM) of 0.61 and a relative viability ([5]; first compound 0.005 µM) of 1.02. For the same compound, the relative viability ([5]; first compound 0.01581 µM) was 1.07, the relative viability ([5]; first compound 0.05 µM) was 0.773 and the relative viability ([5]; first compound 0.1581 µM) was 0.97. It also gave a relative viability ([5]; first compound 0.5 µM) of 0.858, a relative viability ([6]; first compound 0.005 µM) of 0.464 and a relative viability ([6]; first compound 0.01581 µM) of 0.458. For the same compound, the relative viability ([6]; first compound 0.05 µM) was 0.46, the relative viability ([6]; first compound 0.1581 µM) was 0.434 and the relative viability ([6]; first compound 0.5 µM) was 0.474. For the same compound, the relative viability ([7]; first compound 0.01581 µM) was 0.205, the relative viability ([7]; first compound 0.05 µM) was 0.272 and the relative viability ([7]; first compound 0.1581 µM) was 0.201. The relative viability ([7]; first compound 0.5 µM) was 0.258, the relative viability ([8]; first compound 0.005 µM) was 0.189 and the relative viability ([8]; first compound 0.01581 µM) was 0.209. For the same compound, the relative viability ([8]; first compound 0.05 µM) was 0.146, the relative viability ([8]; first compound 0.1581 µM) was 0.196 and the relative viability ([8]; first compound 0.5 µM) was 0.132. For the same compound, the relative viability ([9]; first compound 0.005 µM) was 0.519, the relative viability ([9]; first compound 0.01581 µM) was 0.525 and the relative viability ([9]; first compound 0.1581 µM) was 0.592. For the same compound, the relative viability ([9]; first compound 0.5 µM) was 0.517, the relative viability ([10]; first compound 0.005 µM) was 0.263 and the relative viability ([10]; first compound 0.01581 µM) was 0.24. The relative viability ([10]; first compound 0.05 µM) was 0.252, the relative viability ([10]; first compound 0.1581 µM) was 0.271 and the relative viability ([10]; first compound 0.5 µM) was 0.324. The relative viability ([11]; first compound 0.005 µM) was 0.619, the relative viability ([11]; first compound 0.01581 µM) was 0.643 and the relative viability ([11]; first compound 0.05 µM) was 0.577. For the same compound, the relative viability ([11]; first compound 0.1581 µM) was 0.572, the relative viability ([11]; first compound 0.5 µM) was 0.392 and the relative viability ([12]; first compound 0.005 µM) was 0.621. It also gave a relative viability ([12]; first compound 0.01581 µM) of 1.11, a relative viability ([12]; first compound 0.05 µM) of 0.901 and a relative viability ([12]; first compound 0.1581 µM) of 0.933. It also gave a relative viability ([12]; first compound 0.5 µM) of 0.926, a relative viability ([13]; first compound 0.005 µM) of 0.522 and a relative viability ([13]; first compound 0.01581 µM) of 0.699. It also gave a relative viability ([13]; first compound 0.05 µM) of 0.637, a relative viability ([13]; first compound 0.1581 µM) of 0.482 and a relative viability ([13]; first compound 0.5 µM) of 0.459. The relative viability ([14]; first compound 0.005 µM) was 0.607, the relative viability ([14]; first compound 0.01581 µM) was 0.583 and the relative viability ([14]; first compound 0.05 µM) was 0.512. It also gave a relative viability ([14]; first compound 0.1581 µM) of 0.692, a relative viability ([14]; first compound 0.5 µM) of 0.598 and a relative viability ([15]; first compound 0.005 µM) of 0.509. It also gave a relative viability ([15]; first compound 0.01581 µM) of 0.595, a relative viability ([15]; first compound 0.05 µM) of 0.521 and a relative viability ([15]; first compound 0.1581 µM) of 0.447. It also gave a relative viability ([15]; first compound 0.5 µM) of 0.556, a relative viability ([16]; first compound 0.005 µM) of 0.41 and a relative viability ([16]; first compound 0.01581 µM) of 0.544. For the same compound, the relative viability ([16]; first compound 0.1581 µM) was 0.425, the relative viability ([16]; first compound 0.5 µM) was 0.554 and the relative viability ([17]; first compound 0.005 µM) was 0.388. For the same compound, the relative viability ([17]; first compound 0.01581 µM) was 0.387, the relative viability ([17]; first compound 0.05 µM) was 0.297 and the relative viability ([17]; first compound 0.1581 µM) was 0.271. The relative viability ([17]; first compound 0.5 µM) was 0.359, the relative viability ([18]; first compound 0.005 µM) was 0.255 and the relative viability ([18]; first compound 0.01581 µM) was 0.317. The relative viability ([18]; first compound 0.05 µM) was 0.228, the relative viability ([18]; first compound 0.1581 µM) was 0.284 and the relative viability ([18]; first compound 0.5 µM) was 0.215. For the same compound, the relative viability ([19]; first compound 0.005 µM) was 0.377, the relative viability ([19]; first compound 0.01581 µM) was 0.513 and the relative viability ([19]; first compound 0.05 µM) was 0.287. The relative viability ([19]; first compound 0.1581 µM) was 0.394, the relative viability ([19]; first compound 0.5 µM) was 0.41 and the relative viability ([20]; first compound 0.005 µM) was 0.344. For the same compound, the relative viability ([20]; first compound 0.01581 µM) was 0.424, the relative viability ([20]; first compound 0.05 µM) was 0.346 and the relative viability ([20]; first compound 0.1581 µM) was 0.31. It also gave a relative viability ([20]; first compound 0.5 µM) of 0.204, a relative viability ([21]; first compound 0.005 µM) of 0.32 and a relative viability ([21]; first compound 0.01581 µM) of 0.309. For the same compound, the relative viability ([21]; first compound 0.05 µM) was 0.27, the relative viability ([21]; first compound 0.1581 µM) was 0.278 and the relative viability ([21]; first compound 0.5 µM) was 0.31. The relative viability ([22]; first compound 0.005 µM) was 0.319, the relative viability ([22]; first compound 0.01581 µM) was 0.368 and the relative viability ([22]; first compound 0.05 µM) was 0.309. The relative viability ([22]; first compound 0.1581 µM) was 0.202, the relative viability ([22]; first compound 0.5 µM) was 0.37 and the relative viability ([23]; first compound 0.005 µM) was 0.765. It also gave a relative viability ([23]; first compound 0.01581 µM) of 0.796, a relative viability ([23]; first compound 0.05 µM) of 0.753 and a relative viability ([23]; first compound 0.1581 µM) of 0.699. For the same compound, the relative viability ([23]; first compound 0.5 µM) was 0.729.

Reference: the supplement of paper PMC10307832
